# From PMC3199943, “Screening the MayBridge Rule of 3 Fragment Library for Compounds That Interact with the Trypanosoma brucei myo-Inositol-3-Phosphate Synthase and/or Show Trypanocidal Activity” (Molecular Biology International, 2011)
# Where two headings read alike, the source gives them in different places.
# How the values were obtained:
# HeLa cells = assay: cells; conditions: for HeLa Cells Alamar Blue: Supplementary Table 1; for viability at 500 µM: 65 h
# Method: (§1) Cytotoxic effects against HeLa and A549 cells were determined in a similar manner. Briefly, the cells were cultured in DMEM supplemented with 10% FCS and 2 mM L-Glutamine. Cells were plated at initial cell concentration of 2 × 10^4 cells/well and incubated with the compounds for ~65 hours prior to addition of Alamar Blue solution for a further 5 hours.
# A549 cells = assay: Cytotoxicity against A549 cells, Alamar Blue; type: cell-based; conditions: Supplementary Table 1, compound 0.5 mM, percentage of controls (n=1); for viability at 500 µM: Homo sapiens, A549, 65 h
# Method: as §1
# [1] = compound 0.5 mM, percentage of controls, mean ± SD (n=3) or SE (n=2)
# [2] = Homo sapiens, HeLa, read-out: HeLa Cells Alamar Blue
# [3] = Homo sapiens, HeLa, read-out: HeLa Cells Alamar Blue, Supplementary Table 1, compound 0.5 mM, percentage of controls, mean ± SD (n=3) or SE (n=2)
Structure (SMILES),viability at 500 µM (HeLa cells; [2]) [%],viability at 500 µM (A549 cells) [%],further results
"CC(=O)c1ccc(-n2ccnc2)cc1 [compound 503, 1‐[4‐(1H‐imidazol‐1‐yl)phenyl]‐1‐ethanone]",,,HeLa Cells Alamar Blue (HeLa cells; [1]): 69.7 ± 7.3 percentage of controls; A549 Cells Alamar Blue (A549 cells): 94.5 percentage of controls
"Oc1ccc(-n2ccnc2)cc1 [compound 266, 4‐(1H‐imidazol‐1‐yl)phenol]",83 ± 19.8,108,
"Cc1cccc2cc[nH]c12 [compound 95, 7‐methyl‐1H‐indole]",11.9 ± 8.8,13.4,
"Cc1cccc(N2CCNCC2)c1C [compound 549, 1‐(2,3‐dimethylphenyl)piperazine]",10.1 ± 5.7,13.6,
"CC12CCC(CC1=NO)C2(C)C (centres unmarked) [compound 332, 1,7,7‐trimethylbicyclo[2.2.1]heptan‐2‐one oxime]",,,HeLa Cells Alamar Blue (HeLa cells; [1]): 110.6 ± 8.3 percentage of controls; A549 Cells Alamar Blue (A549 cells): 93.9 percentage of controls
"NCCc1cccc2c1OCC2 [compound 293, 2,3‐Dihydrobenzo[b]furan‐7‐ethylamine]",10.8 ± 0.1,19.8,
"OCc1ccccc1C(F)(F)F [compound 407, [2‐(trifluoromethyl)phenyl]methanol]",104 ± 13.9,90.2,
"O=C(O)C1CCCNC1 (centres unmarked) [compound 91, 3-piperidinecarboxylic acid]",,103,"viability at 500 µM (HeLa cells; Homo sapiens, HeLa, read-out: HeLa Cells Alamar Blue (% survival), compound 0.5 mM, percentage of controls): 76.6 ± 29.1%; viability at 500 µM (HeLa cells; [3]): 76.6 ± 29.1%"
"Nc1cc(Cl)cc(Cl)c1 [compound 282, 3,5‐dichloroaniline]",86.4 ± 8.5,66.5,
"N#Cc1ccc(-c2ccccc2)nc1 [compound 456, 6‐phenylnicotinonitrile]",33.9 ± 6.9,67.1,
"Cc1nc(CCN)cs1 [compound 141, 2‐(2‐methyl‐1,3‐thiazol‐4‐yl)ethylamine]",98.9 ± 7.6,105,
"O=C(C1CCNCC1)N1CCCC1 [compound 469, 4‐piperidinyl(1‐pyrrolidinyl)methanone]",99.5 ± 8.7,86.1,
"OCc1ccc(Oc2ccccc2)o1 [compound 540, (5‐phenoxy‐2‐furyl)methanol]",13.7 ± 6.5,57.7,
"c1ccc(-c2c[nH]cn2)cc1 [compound 149, 4‐phenyl‐1H‐imidazole]",80.2 ± 11.7,99.1,
"CC(C)(C)C(=O)Nc1ccncc1 [compound 439, 2,2‐dimethyl‐N‐(4‐pyridinyl)propanamide]",54.6 ± 4.5,65,
"Oc1ccccc1N1CCOCC1 [compound 448, 2‐morpholinophenol]",93.3 ± 6.7,71.1,
"CCN(CC)CCc1ccccn1 [compound 443, N,N‐diethyl‐N‐[2‐(2‐pyridyl)ethyl]amine]",90.9 ± 9.8,49.2,
"OCc1csc2ccc(Cl)cc12 [compound 608, (5‐chloro‐1‐benzothiophen‐3‐yl)methanol]",78.3 ± 1,63.8,
"OCC1CCNCC1 [compound 40, 4‐piperidylmethanol]",84.3 ± 9,104,

Structure (SMILES),viability at 500 µM (HeLa cells; [2]) [%],viability at 500 µM (A549 cells) [%],further results
"OCC1COc2ccccc2C1 (centres unmarked) [compound 300, 3,4‐dihydro‐2H‐chromen‐3‐ylmethanol]",90 ± 16.3,113,
"CNCc1nn(C)c2ccccc12 [compound 401, N‐methyl‐N‐[(1‐methyl‐1H‐indazol‐3‐yl)methyl]amine]",,,HeLa Cells Alamar Blue (HeLa cells; [1]): 92.5 ± 7.4 percentage of controls; A549 Cells Alamar Blue (A549 cells): 91.7 percentage of controls
"NCc1ccc(F)cc1 [compound 71, 4‐fluorobenzylamine]",93.3 ± 10.3,110,
"CNCc1cccnc1 [compound 57, N‐methyl‐N‐(3‐pyridylmethyl)amine]",89.3 ± 9.6,79,
"OCc1cc(-c2cccs2)on1 [compound 462, [5‐(2‐thienyl)‐3‐isoxazolyl]methanol]",75.6 ± 5.9,76.2,
"Nc1nc(-c2ccc(O)cc2)cs1 [compound 565, 4‐(2‐amino‐1,3‐thiazol‐4‐yl)phenol]",,61.6,viability at 500 µM (HeLa cells; [3]): 57.7 ± 17.7%
"O=C(O)Cc1ccc(F)cc1 [compound 219, 2‐(4‐fluorophenyl)acetic acid]",94.3 ± 13.4,98.4,
"Cc1ccc(C(N)=O)cc1C [compound 177, 3,4‐dimethylbenzamide]",81.7 ± 16.8,64.2,
"Oc1ccc(Oc2ccccc2)cc1 [compound 502, 4‐phenoxyphenol]",,53.1,viability at 500 µM (HeLa cells; [3]): 39.6 ± 16.6%
"Oc1nc2ccc(Cl)cc2o1 [compound 342, 6‐chloro‐1,3‐benzoxazol‐2‐ol]",94.3 ± 6.5,73.9,
"O=C(O)c1sccc1Cl [compound 290, 3‐chlorothiophene‐2‐carboxylic acid]",86.9 ± 14.3,117,
"Cn1nc(CO)c2ccccc21 [compound 286, (1‐methyl‐1H‐indazol‐3‐yl)methanol]",90.9 ± 3.1,73.2,
"Nc1nsc(-c2ccccc2)n1 [compound 424, 5‐phenyl‐1,2,4‐thiadiazol‐3‐amine]",62.2 ± 15.4,60.1,
"NCc1ccc2occc2c1 [compound 165, 1‐benzofuran‐5‐ylmethylamine]",92.6 ± 8.6,90.7,
"Nc1cccc(COc2ccccc2)c1 [compound 616, 3‐(phenoxymethyl)aniline]",80.5 ± 17.9,57.5,
"N#Cc1ccccc1-n1cccc1 [compound 336, 2‐(1H‐pyrrol‐1‐yl)benzonitrile]",68.5 ± 16.3,134,
"Cn1ccc2ccc(CO)cc21 [compound 278, (1‐methyl‐1H‐indol‐6‐yl)methanol]",18.2 ± 10.4,47.8,
"OCc1ccc2c(c1)OCCCO2 [compound 453, 3,4‐dihydro‐2H‐1,5‐benzodioxepin‐7‐ylmethanol]",,,HeLa Cells Alamar Blue (HeLa cells; [1]): 86.6 ± 3.2 percentage of controls; A549 Cells Alamar Blue (A549 cells): 51.6 percentage of controls
"Nc1cccc(OC(F)(F)F)c1 [compound 419, 3‐(trifluoromethoxy)aniline]",105 ± 11.1,85,

Structure (SMILES),viability at 500 µM (HeLa cells; [2]) [%],viability at 500 µM (A549 cells) [%],further results
"N#Cc1cnccc1C(F)(F)F [compound 358, 4‐(trifluoromethyl)nicotinonitrile]",103 ± 1.7,129,
"CC(=O)Nc1ccc(Cl)cc1C [compound 473, 4‐chloro‐2‐methylacetanilide]",109 ± 11.9,76.1,
"NC(=O)Cc1ccc(F)cc1Cl [compound 519, 2‐(2‐chloro‐4‐fluorophenyl)acetamide]",98.3 ± 15.4,102,
"NC(=O)c1ccccc1N1CCCCC1 [compound 651, 2‐piperidinobenzamide]",82.4 ± 5.4,93.1,
"Cc1cc(CN)no1 [compound 33, (5‐methyl‐3‐isoxazolyl)methylamine]",64.3 ± 18.4,75.6,
"OCC1CCOCC1 [compound 43, tetrahydro‐2H‐pyran‐4‐ylmethanol]",91.9 ± 5.9,79.2,
"Cc1cc(N)on1 [compound 10, 3‐methylisoxazol‐5‐amine]",66 ± 4.6,87.2,
"CC(C)(C)c1ccc(N)cc1 [compound 178, 4‐(tert‐butyl)aniline]",109 ± 18.8,87.6,
"c1ccc2c(c1)CCO2 [compound 49, 2,3‐dihydrobenzo[b]furan]",102 ± 8.6,87.3,
"O=C(O)C1CC2CC1CCC2O (centres unmarked) [compound 345, 2‐hydroxybicyclo[3.2.1]octane‐6‐carboxylic acid]",,,HeLa Cells Alamar Blue (HeLa cells; [1]): 87.4 ± 13 percentage of controls; A549 Cells Alamar Blue (A549 cells): 127 percentage of controls
"Cn1ccc2ccc(C(=O)O)cc21 [compound 398, 1‐methyl‐1H‐indole‐6‐carboxylic acid]",109 ± 10.3,101,
"CC(C)(C)c1cccc(N)c1 [compound 179, 3‐(tert‐butyl)aniline]",99.3 ± 14.7,77.9,
"Cc1cccc(CO)n1 [compound 62, (6‐methylpyridin‐2‐yl)methanol]",98.6 ± 7.3,67.5,
"NCc1ccc(F)c(Cl)c1 [compound 264, 3‐chloro‐4‐fluorobenzylamine]",47.5 ± 13.5,88.4,
"COc1ccc(N)c(OC)c1 [compound 213, 2,4‐dimethoxyaniline]",14 ± 8.2,61.2,"CC50 (HeLa cells; Homo sapiens, HeLa, read-out: HeLa ED50): 710 ± 96 µM"
"O=C(O)C1CCOCC1 [compound 92, tetrahydro‐2H‐pyran‐4‐carboxylic acid]",78.4 ± 15.8,118,
"Cn1ccnc1CO [compound 34, (1‐methyl‐1H‐imidazol‐2‐yl)methanol]",97 ± 14,72.1,
"CNCc1ccc(Cl)cc1 [compound 231, N‐(4‐chlorobenzyl)‐N‐methylamine]",113 ± 3.7,107,
"FC(F)(F)C1=NCCNC=C1 [compound 295, 5‐(trifluoromethyl)‐2,3‐dihydro‐1H‐1,4‐diazepine]",,,HeLa Cells Alamar Blue (HeLa cells; [1]): 75.2 ± 18.7 percentage of controls; A549 Cells Alamar Blue (A549 cells): 72.1 percentage of controls
